For test [1], the target named is T1, Bifunctional 3'-5' exonuclease/ATP-dependent helicase WRN [480-1251] (UniProt Q14191).
T1 construct: 480-1251
The experiment in a line: Biochemical Activity Assays.

For test [2], the target named is Bifunctional 3'-5' exonuclease/ATP-dependent helicase WRN (Homo sapiens, UniProt Q14191). The experiment in a line: ADP-Glo Kinase Assay. The method, then: ATPase activity was measured using the ADP-Glo Kinase Assay following the manufacturers recommended protocol.
Sequence of Bifunctional 3'-5' exonuclease/ATP-dependent helicase WRN (Q14191 whole entry): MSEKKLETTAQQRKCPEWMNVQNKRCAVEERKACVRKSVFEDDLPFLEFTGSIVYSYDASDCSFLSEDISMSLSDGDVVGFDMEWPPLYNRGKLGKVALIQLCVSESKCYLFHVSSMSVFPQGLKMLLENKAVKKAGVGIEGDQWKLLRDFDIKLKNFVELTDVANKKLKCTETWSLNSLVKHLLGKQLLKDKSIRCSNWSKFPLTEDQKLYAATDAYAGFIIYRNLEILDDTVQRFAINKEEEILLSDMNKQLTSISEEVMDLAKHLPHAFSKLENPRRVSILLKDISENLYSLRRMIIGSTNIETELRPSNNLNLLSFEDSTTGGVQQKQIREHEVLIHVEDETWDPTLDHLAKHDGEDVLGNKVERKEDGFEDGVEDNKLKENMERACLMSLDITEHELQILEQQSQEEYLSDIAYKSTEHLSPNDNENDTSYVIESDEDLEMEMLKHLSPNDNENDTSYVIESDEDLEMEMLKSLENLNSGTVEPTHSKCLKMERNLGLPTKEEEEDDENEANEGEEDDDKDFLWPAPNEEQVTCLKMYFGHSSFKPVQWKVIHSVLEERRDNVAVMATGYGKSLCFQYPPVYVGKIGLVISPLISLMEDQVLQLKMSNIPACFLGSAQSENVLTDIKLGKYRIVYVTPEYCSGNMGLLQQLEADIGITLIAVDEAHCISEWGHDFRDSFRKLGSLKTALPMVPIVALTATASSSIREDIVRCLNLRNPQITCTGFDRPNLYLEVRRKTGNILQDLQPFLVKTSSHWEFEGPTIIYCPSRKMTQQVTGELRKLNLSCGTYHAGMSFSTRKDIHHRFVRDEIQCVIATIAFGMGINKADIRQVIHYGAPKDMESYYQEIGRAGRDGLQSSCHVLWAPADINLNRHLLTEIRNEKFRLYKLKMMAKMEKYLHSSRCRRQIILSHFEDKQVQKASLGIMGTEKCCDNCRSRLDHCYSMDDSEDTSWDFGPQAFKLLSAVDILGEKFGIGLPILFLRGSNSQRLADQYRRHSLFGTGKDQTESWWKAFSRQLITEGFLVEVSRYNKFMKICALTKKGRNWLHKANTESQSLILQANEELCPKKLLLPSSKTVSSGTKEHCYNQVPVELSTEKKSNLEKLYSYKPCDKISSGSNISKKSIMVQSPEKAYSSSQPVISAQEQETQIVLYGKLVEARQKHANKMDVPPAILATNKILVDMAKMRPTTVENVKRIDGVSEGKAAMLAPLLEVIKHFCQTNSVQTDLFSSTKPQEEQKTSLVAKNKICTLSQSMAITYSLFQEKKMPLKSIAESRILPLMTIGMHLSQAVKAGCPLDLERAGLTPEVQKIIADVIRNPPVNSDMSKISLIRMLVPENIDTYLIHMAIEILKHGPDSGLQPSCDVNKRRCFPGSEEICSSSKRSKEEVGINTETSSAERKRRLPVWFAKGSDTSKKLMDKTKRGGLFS

T1 sequence (Q14191 480-1251): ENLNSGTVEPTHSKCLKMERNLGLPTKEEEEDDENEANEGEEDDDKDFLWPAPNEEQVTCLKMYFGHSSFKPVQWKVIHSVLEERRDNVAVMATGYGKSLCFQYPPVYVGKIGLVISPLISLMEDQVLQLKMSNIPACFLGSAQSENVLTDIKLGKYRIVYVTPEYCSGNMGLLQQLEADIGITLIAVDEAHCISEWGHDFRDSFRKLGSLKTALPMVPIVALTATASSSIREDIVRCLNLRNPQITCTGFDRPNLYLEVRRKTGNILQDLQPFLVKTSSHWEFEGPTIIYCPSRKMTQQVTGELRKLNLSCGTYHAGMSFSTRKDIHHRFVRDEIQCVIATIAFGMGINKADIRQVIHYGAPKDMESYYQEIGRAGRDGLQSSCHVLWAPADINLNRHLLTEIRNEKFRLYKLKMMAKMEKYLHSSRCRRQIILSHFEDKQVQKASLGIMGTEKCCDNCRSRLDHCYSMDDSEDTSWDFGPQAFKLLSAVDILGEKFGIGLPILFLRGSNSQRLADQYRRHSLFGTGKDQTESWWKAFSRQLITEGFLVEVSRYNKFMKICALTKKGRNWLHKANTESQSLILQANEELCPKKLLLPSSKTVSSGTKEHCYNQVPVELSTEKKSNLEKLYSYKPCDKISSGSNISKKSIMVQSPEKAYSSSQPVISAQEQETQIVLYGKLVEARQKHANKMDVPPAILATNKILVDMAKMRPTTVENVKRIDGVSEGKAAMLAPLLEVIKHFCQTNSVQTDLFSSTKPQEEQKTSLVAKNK

For the compound `CCc1c(N2CCN(C(=O)c3ccnc4cc[nH]c34)CC2)c(=O)n2nc(C3=CCOCC3)nc2n1CC(=O)Nc1ccc(C(F)(F)F)cc1Cl` [WO2025049746, Example 46], the 50% inhibitory concentration (IC50) (usually the concentration at which inhibition is half-maximal) worked out at 36 nM in test [1] and 52.1 nM in test [2].

As for `CCc1c(N2CCN(C(=O)C3=CCOCC3)CC2)c(=O)n2nc(-c3ccnc(O)n3)nc2n1CC(=O)Nc1ccc(C(F)(F)F)cc1Cl` [WO2025049746, Example 430], the IC50 amounted to 373 nM in test [1] and 550 nM in test [2].

In the case of `CCc1c(N2CCN(C(=O)c3nsc(-c4ccncc4)c3O)CC2)c(=O)n2nc(-c3ccc4c(c3)COC4)nc2n1CC(=O)Nc1ccc(C(F)(F)F)cc1Cl` [WO2025049746, Example 448], the IC50 in test [1] is 42 nM; in test [2], 49 nM.

As for `CCc1c(N2CCN(C(=O)c3ncnc(C)c3O)CC2)c(=O)n2nc(-c3cnc4nn(C)cc4c3)nc2n1CC(=O)Nc1ccc(C(F)(F)F)cc1Cl` [WO2025049746, Example 313], the IC50 in test [1] is 38 nM; in test [2] it was 35 nM.

In the case of `CCc1c(N2CCN(C(=O)c3ncnc(C)c3O)CC2)c(=O)n2nc(C3=CCOCC3)nc2n1CC(=O)Nc1c(Cl)cc(C(F)(F)F)c2scnc12` [WO2025049746, Example 373], the IC50 in test [1] turned out to be 51 nM; in test [2] it was 64 nM.

Take `CCc1c(N2CCN(C(=O)c3ncnc(C)c3O)CC2)c(=O)n2nc(-c3nc4c(s3)CCC4)nc2n1CC(=O)Nc1ccc(C(F)(F)F)cc1Cl` [WO2025049746, Example 210]: the IC50 was 31 nM in test [1] and 38 nM in test [2].

For the compound `CCc1c(N2CC[C@@H](C)N(C(=O)c3ncnc(C)c3O)CC2)c(=O)n2nc(C3=CCOCC3)nc2n1CC(=O)Nc1ccc(C(F)(F)F)cc1Cl` [WO2025049746, Example 341], the IC50 in test [1] was found to be 67 nM; in test [2], 80 nM.

For the compound `CCc1c(N2CCN(C(=O)c3ncnc(C)c3O)CC2)c(=O)n2nc(-c3cc4c(cc3F)OCC4)nc2n1CC(=O)Nc1ccc(C(F)(F)F)cc1Cl` [WO2025049746, Example 169], the figures for the IC50 in test [1] and in test [2] were 25 nM and 26 nM, respectively.

As for `CCc1c(N2CCN(C(=O)c3ncnc(C)c3O)CC2)c(=O)n2nc(C3=CCOCC3)nc2n1CC(=O)NC12CC(CCC(F)(F)F)(C1)C2` [WO2025049746, Example 361], the IC50 in test [1] and in test [2] was 29700 nM in each case.

Turning to `CCc1c(N2CCN(C(=O)c3ncnc(C)c3O)CC2)c(=O)n2c(C)c(-c3ccc4c(c3)COC4)nc2n1CC(=O)Nc1ccc(C(F)(F)F)cc1Cl` [WO2025049746, Example 451], the IC50 in test [1] amounted to 6910 nM; in test [2], 6940 nM.

For the compound `CCc1c(N2CCN(C(=O)c3ncnc(C)c3O)CC2)c(=O)n2nc(-c3cc(C)n4nccc4c3)nc2n1CC(=O)Nc1ccc(C(F)(F)F)cc1Cl` [WO2025049746, Example 240], the IC50 in test [1] turned out to be 27 nM; in test [2], 24 nM.

With `CCc1c(N2CCN(C(=O)c3nc4n(c(=O)c3O)CCOC4)CC2)c(=O)n2nc(C3=CCOCC3)nc2n1CC(=O)Nc1ccc(C(F)(F)F)cc1Cl` [WO2025049746, Example 32], the figures for the IC50 in test [1] and in test [2] were 25 nM and 29.7 nM, respectively.

In the case of `CCc1c(N2CCN(C(=O)c3ncnc(C)c3O)CC2)c(=O)n2nc(-c3ccc4c(c3)CCOC4)nc2n1C(F)(F)C(=O)Nc1ccc(C(F)(F)F)cc1Cl` [WO2025049746, Example 402], the 50% inhibitory concentration (IC50) in test [1] came out at 26 nM; in test [2] it was 32 nM.

Regarding `CCc1c(N2CCN(C(=O)c3ncnc(C)c3O)CC2)c(=O)n2nc(-c3ccc4c(c3)OCO4)nc2n1CC(=O)Nc1ccc(C(F)(F)F)c2c1CC2` [WO2025049746, Example 96], the values for the IC50 in test [1] and in test [2] were 25.9 nM and 28.3 nM, respectively.

Turning to `CCc1c(N2CCN(C(=O)c3ncnc(C)c3O)CC2)c(=O)n2nc(-c3cc(C)c4c(c3)COC4(C)C)nc2n1CC(=O)Nc1ccc(C(F)(F)F)cc1Cl` [WO2025049746, Example 221], the IC50 was 56 nM in test [1] and 47 nM in test [2].

Consider `CCc1c(N2CCN(C(=O)c3ncnc(C)c3O)CC2)c(=O)n2nc(-c3ccc4c(c3)CC[C@@H]4OC)nc2n1CC(=O)Nc1ccc(C(F)(F)F)cc1Cl` [WO2025049746, Example 207], for which the IC50 was found to be 33 nM in test [1] and 39 nM in test [2].

On to `CCc1c(N2CCN(C(=O)c3ccccc3NS(=O)(=O)C3CC3)CC2)c(=O)n2nc(-c3ccc4c(c3)CCOC4)nc2n1CC(=O)Nc1ccc(C(F)(F)F)c2c1CC2` [WO2025049746, Example 110], for which the results for the IC50 in test [1] and in test [2] were 372 nM and 467 nM, respectively.

As to `CCc1c(N2CCN(C(=O)c3c(C#N)cnc(C)c3O)CC2)c(=O)n2nc(-c3ccc4c(c3)COC4)nc2n1CC(=O)Nc1ccc(C(F)(F)F)cc1Cl` [WO2025049746, Example 449], the figures for the IC50 in test [1] and in test [2] were 45 nM and 40 nM, respectively.

As for `CCc1c(N2CCN(C(=O)c3ncnc(C)c3O)CC2)c(=O)n2nc(-c3cn4c(n3)COCC4)nc2n1CC(=O)Nc1ccc(C(F)(F)F)cc1Cl` [WO2025049746, Example 153], the IC50 was 165 nM in test [1] and 168 nM in test [2].

In the case of `CCc1c(N2CCN(C(=O)c3ccccc3NS(=O)(=O)C3CC3)CC2)c(=O)n2nc(-c3cccc4c3OCCO4)nc2n1CC(=O)Nc1ccc(C(F)(F)F)cc1Cl` [WO2025049746, Example 379], the half-inhibitory concentration (IC50) is 135 nM in test [1] and 202 nM in test [2].

With `CCc1c(N2CCN(c3ccncn3)CC2)c(=O)n2nc(C3=CCOCC3)nc2n1CC(=O)Nc1ccc(C(F)(F)F)cc1Cl` [WO2025049746, Example 66], the results for the IC50 in test [1] and in test [2] were 45.9 nM and 63.9 nM, respectively.

`CCc1c(N2CCN(C(=O)c3ncnc(C)c3O)CC2)c(=O)n2nc(-c3cc4c(cc3F)[C@@H](OC)CC4)nc2n1CC(=O)Nc1ccc(C(F)(F)F)cc1Cl` [WO2025049746, Example 244]: the IC50 in test [1] amounted to 23 nM; in test [2], 24 nM.

In the case of `CCc1c(N2CCN(C(=O)c3ncnc(C)c3O)[C@@H]3CC[C@@H]32)c(=O)n2nc(-c3ccc4c(c3)COC4(C)C)nc2n1CC(=O)Nc1ccc(C(F)(F)F)cc1Cl` [WO2025049746, Example 459], the IC50 in test [1] was determined as 81 nM; in test [2] it was 91 nM.

Consider `CCc1c(N2CCN(C(=O)c3ccccc3NS(C)(=O)=O)CC2)c(=O)n2nc(-c3cccc4c3OCCO4)nc2n1CC(=O)Nc1ccc(C(F)(F)F)cc1Cl` [WO2025049746, Example 378], for which the IC50 came to 96 nM in test [1] and 154 nM in test [2].

`CCc1c(N2CCN(C(=O)c3ccccc3NC(=O)c3ccn[nH]3)CC2)c(=O)n2nc(C3=CCOCC3)nc2n1CC(=O)Nc1ccc(C(F)(F)F)cc1Cl` [WO2025049746, Example 40]: the IC50 was 62.2 nM in test [1] and 125 nM in test [2].

Turning to `CCc1c(N2CCN(C(=O)c3nocc3O)CC2)c(=O)n2nc(-c3ccc4c(c3)COC4)nc2n1CC(=O)Nc1ccc(C(F)(F)F)cc1Cl` [WO2025049746, Example 446], the IC50 in test [1] and in test [2] was 20 nM throughout.

Take `CCc1c(N2CCN(C(=O)c3ncnc(C)c3O)CC2)c(=O)n2nc(-c3cccc4c3OCCO4)nc2n1CC(=O)Nc1c(Cl)cc(C(F)(F)F)c2c1CC2` [WO2025049746, Example 388]: the IC50 in test [1] was 58 nM; in test [2], 87 nM.

Turning to `CCc1c(N2CCN(C(=O)c3ncnc(C)c3O)CC2)c(=O)n2nc(-c3ccc4c(c3)CC(C)(C)O4)nc2n1CC(=O)Nc1ccc(C(F)(F)F)cc1Cl` [WO2025049746, Example 194], the IC50 was 67 nM in test [1] and 81 nM in test [2].

For `CCc1c(N2CCN(C(=O)c3ncnc(C)c3O)CC2)c(=O)n2nc(-c3cccc4nc(C)oc34)nc2n1CC(=O)Nc1ccc(C(F)(F)F)cc1Cl` [WO2025049746, Example 23], the IC50 in test [1] was found to be 30 nM; in test [2], 43.7 nM.

On to `CCc1c(N2CCN(C(=O)CO)CC2)c(=O)n2nc(C3=CCOCC3)nc2n1CC(=O)Nc1ccc(C(F)(F)F)cc1Cl` [WO2025049746, Example 53], for which the IC50 in test [1] came to 254 nM; in test [2] it was 440 nM.

Consider `CCc1c(N2CCN(C(=O)c3csc4cncnc34)CC2)c(=O)n2nc(C3=CCOCC3)nc2n1CC(=O)Nc1ccc(C(F)(F)F)cc1Cl` [WO2025049746, Example 43], for which the IC50 was 41.9 nM in test [1] and 63.9 nM in test [2].

Turning to `CCc1c(N2CCN(C(=O)c3ncnc(C)c3O)CC2)c(=O)n2nc(-c3cnc4[nH]cc(Cl)c4c3)nc2n1CC(=O)Nc1ccc(C(F)(F)F)cc1Cl` [WO2025049746, Example 328], the IC50 was 53 nM in test [1] and 42 nM in test [2].

With `CCc1c(N2CCN(C(=O)c3nccc4nc[nH]c34)CC2)c(=O)n2nc(N(C)C)nc2n1CC(=O)Nc1ccc(C(F)(F)F)cc1Cl` [WO2025049746, Example 80], the IC50 in test [1] turned out to be 26.9 nM; in test [2] it was 43.3 nM.

Consider `CCc1c(N2CCN(C(=O)c3ncnc(C)c3O)CC2)c(=O)n2nc(-c3ccc4c(c3)CCOC4)nc2n1CC(=O)Nc1ccc(Cl)c(OC(F)F)c1Cl` [WO2025049746, Example 406], for which the values for the IC50 in test [1] and in test [2] were 36 nM and 46 nM, respectively.

With `CCc1c(N2CCN(C(=O)c3ncnc(C)c3O)CC2)c(=O)n2nc(C3=CCOCC3)nc2n1CC(=O)NC1CC2(CC(F)C2)C1` (stereo not drawn) [WO2025049746, Example 372], the figures for the IC50 in test [1] and in test [2] were 1390 nM and 1830 nM, respectively.

Turning to `CCc1c(N2CCC(N(C)C(=O)c3ncnc(C)c3O)C2)c(=O)n2nc(C3=CCOCC3)nc2n1CC(=O)Nc1ccc(C(F)(F)F)cc1Cl` (stereo not drawn) [WO2025049746, Example 339], the IC50 in test [1] was 2340 nM; in test [2] it was 29700 nM.

For the compound `CCc1c(N2CCN(C(=O)c3ncnc(C)c3O)CC2)c(=O)n2nc(-c3ccc4c(c3C)CCO4)nc2n1CC(=O)Nc1ccc(C(F)(F)F)cc1Cl` [WO2025049746, Example 238], the values for the IC50 in test [1] and in test [2] were 33 nM and 30 nM, respectively.

On to `CCc1c(N2CCN(C(=O)c3nc4n(c(=O)c3O)CCOC4)CC2)c(=O)n2nc(-c3ccc4c(c3)COC4(C)C)nc2n1CC(=O)Nc1ccc(C(F)(F)F)cc1Cl` [WO2025049746, Example 462], for which the half-inhibitory concentration (IC50) in test [1] is 39.4 nM; in test [2], 35.4 nM.

Take `CCc1c(N2CCN(C(=O)c3ncnc(C)c3O)CC2)c(=O)n2nc(-c3ccc4c(c3)CCOC4)nc2n1CC(=O)Nc1ccc(C(F)(F)F)cc1Cl` [WO2025049746, Example 3]: the IC50 stood at 34.4 nM in test [1] and 41.2 nM in test [2].

(Values after BindingDB's records for patent WO2025049746 (Eikon Therapeutics, 2025).)
